Measured values taken from BindingDB's records for doi:10.1021/acsmedchemlett.9b00051 (Ajinomoto, 2019).

Assay: Positive allosteric modulator activity at human T1R2/T1R3 expressed in PEAKrapid cells assessed as potentiation of sucrose-induced intracellular calcium influx by measuring sucrose EC50 at 30 uM measured for 120 secs by fluorescence based assay (Rvb = 31.7 mM)

**Q.** With `CC(C)(CC(=O)Nc1cncc(C(=O)O)c1N)NC(=O)[C@@H](N)C1CCCCC1` as the compound, how does the EC50 read?
**A.** 2.2 mM

**Q.** For `CC(C)CC(=O)NCc1ccc(-c2cncc(C(=O)O)c2N)o1`, which EC50 is on record?
**A.** 18.3 mM

**Q.** With `CC(C)CNC(=O)NCc1ccc(-c2cncc(C(=O)O)c2N)o1` as the compound, how does the EC50 read?
**A.** 21.6 mM

**Q.** For `Nc1c(NC(=O)CCCCCCNC(=O)[C@@H](N)C2CCCCC2)cncc1C(=O)O`, which EC50 is on record?
**A.** 20.2 mM

**Q.** Which EC50 does the source give for `CC(C)[C@H](N)C(=O)NCc1ccc(-c2cncc(C(=O)O)c2N)o1` here?
**A.** 14.6 mM

**Q.** For `CC(C)[C@@H](CC(=O)Nc1cncc(C(=O)O)c1N)NC(=O)[C@@H](N)C1CCCCC1`, which EC50 is on record?
**A.** 18.4 mM

**Q.** Which EC50 does the source give for `CC(C)C[C@H](N)C(=O)NCc1ccc(-c2cncc(C(=O)O)c2N)o1` here?
**A.** 11.1 mM

**Q.** Which EC50 does the source give for `CC(C)C(=O)NCc1ccc(-c2cncc(C(=O)O)c2N)o1` here?
**A.** 22.1 mM

**Q.** For `CC[C@H](C)[C@H](N)C(=O)NCc1ccc(-c2cncc(C(=O)O)c2N)o1`, which EC50 is on record?
**A.** 10 mM

**Q.** With `CC[C@H](C)[C@@H](CCC(=O)Nc1cncc(C(=O)O)c1N)NC(=O)[C@@H](N)C1CCCCC1` as the compound, how does the EC50 read?
**A.** 8.9 mM

**Q.** With `Nc1c(NC(=O)CCCCNC(=O)[C@@H](N)C2CCCCC2)cncc1C(=O)O` as the compound, how does the EC50 read?
**A.** 7.8 mM

**Q.** With `Nc1c(C(=O)O)cncc1-c1ccc(CNC(=O)[C@@H](N)C2CCCCC2)o1` as the compound, how does the EC50 read?
**A.** 5.8 mM

**Q.** For `CC(=O)NCc1ccc(-c2cncc(C(=O)O)c2N)o1`, which EC50 is on record?
**A.** 27.1 mM

**Q.** Which EC50 does the source give for `C[C@@H](CC(=O)Nc1cncc(C(=O)O)c1N)NC(=O)[C@@H](N)C1CCCCC1` here?
**A.** 10.2 mM

**Q.** With `Cc1nc2ccccc2c(N)c1C(=O)O` as the compound, how does the EC50 read?
**A.** 15.9 mM

**Q.** For `Cc1nc2cccc(OCC(C)(C)C(=O)NC(C)C)c2c(N)c1C(=O)O`, which EC50 is on record?
**A.** 0.6 mM

**Q.** For `CC(C)(C)OC(=O)NCc1ccc(-c2cncc(C(=O)O)c2N)o1`, which EC50 is on record?
**A.** 24.5 mM

**Q.** Which EC50 does the source give for `CC(C)CNC(=O)C(=O)NCc1ccc(-c2cncc(C(=O)O)c2N)o1` here?
**A.** 26.5 mM

**Q.** With `CC(C)C[C@@H](CC(=O)Nc1cncc(C(=O)O)c1N)NC(=O)[C@@H](N)C1CCCCC1` as the compound, how does the EC50 read?
**A.** 22.7 mM

**Q.** Which EC50 does the source give for `Nc1c(NC(=O)CCCNC(=O)[C@@H](N)C2CCCCC2)cncc1C(=O)O` here?
**A.** 16.2 mM

**Q.** With `CC(C)[C@@H](CCC(=O)Nc1cncc(C(=O)O)c1N)NC(=O)[C@@H](N)C1CCCCC1` as the compound, how does the EC50 read?
**A.** 10.5 mM

**Q.** With `Nc1c(NC(=O)CC[C@H](Cc2ccccc2)NC(=O)[C@@H](N)C2CCCCC2)cncc1C(=O)O` as the compound, how does the EC50 read?
**A.** 8.5 mM

Assay: Positive allosteric modulator activity at human T1R2/T1R3 expressed in PEAKrapid cells assessed as potentiation of sucrose-induced intracellular calcium influx by measuring sucrose EC50 at 50 uM measured for 120 secs by fluorescence based assay (Rvb = 31.7 mM)

**Q.** Which EC50 does the source give for `Nc1c(C(=O)O)cncc1-c1ccccc1` here?
**A.** 21.5 mM

**Q.** With `Nc1c(C(=O)O)cncc1-c1cccs1` as the compound, how does the EC50 read?
**A.** 21 mM

**Q.** For `Nc1c(C(=O)O)cncc1-c1ccco1`, which EC50 is on record?
**A.** 16.8 mM
